Structures are written as SMILES. Structures can show the parent of a compound that is named as a salt.

Sequence of AaDOP2 (H6D5H2 1-476): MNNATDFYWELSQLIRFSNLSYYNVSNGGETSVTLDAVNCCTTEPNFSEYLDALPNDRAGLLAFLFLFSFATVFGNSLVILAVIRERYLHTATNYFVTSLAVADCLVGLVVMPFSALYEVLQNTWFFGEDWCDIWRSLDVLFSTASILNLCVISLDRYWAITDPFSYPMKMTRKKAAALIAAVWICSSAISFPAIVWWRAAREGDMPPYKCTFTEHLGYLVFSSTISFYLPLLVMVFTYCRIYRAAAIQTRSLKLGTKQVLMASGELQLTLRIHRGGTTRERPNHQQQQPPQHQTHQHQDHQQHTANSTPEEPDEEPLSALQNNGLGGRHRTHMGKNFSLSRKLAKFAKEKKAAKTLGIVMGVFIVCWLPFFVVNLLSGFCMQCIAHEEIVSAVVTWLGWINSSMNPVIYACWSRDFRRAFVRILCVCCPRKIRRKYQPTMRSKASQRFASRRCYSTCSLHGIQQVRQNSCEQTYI

The first assay addresses AaDOP2 (Aedes aegypti, UniProt H6D5H2). Nature of the assay: AaDOP2 antagonist screen of the LOPAC1280 library (HEK-CRELuc-Aadop2 cells, luminescence). In kind it is cell-based.
Settings: not given
Turning to `CCCCc1ccc(C(=O)O)nc1` [Compound 525, Fusaric acid], the “Compound effect (percent receptor signaling in presence of test compound, relative lux units relative to the SCH23390 control)” value worked out at 152.

With `O=c1[nH]cc(F)c(=O)[nH]1` [Compound 526, 5-Fluorouracil], the “Compound effect (percent receptor signaling in presence of test compound, relative lux units relative to the SCH23390 control)” value is 156.

Turning to `O=C(NCC1CCCCN1)c1cc(OCC(F)(F)F)ccc1OCC(F)(F)F` (centres unmarked) [Compound 527, Flecainide acetate], the “Compound effect (percent receptor signaling in presence of test compound, relative lux units relative to the SCH23390 control)” value is listed as 111.

In the case of `Oc1ccc(C2CNCCc3c2cc(O)c(O)c3Cl)cc1` (centres unmarked) [Compound 528, Fenoldopam bromide], the “Compound effect (percent receptor signaling in presence of test compound, relative lux units relative to the SCH23390 control)” value amounted to 112.

As to `C=C[C@@]1(C)CC(=O)[C@]2(O)[C@@]3(C)[C@@H](O)CCC(C)(C)[C@@H]3[C@H](O)[C@H](OC(C)=O)[C@@]2(C)O1` [Compound 529, Forskolin], the “Compound effect (percent receptor signaling in presence of test compound, relative lux units relative to the SCH23390 control)” value was found to be 46.

With `NC(N)=Nc1nc(CSCCC(N)=NS(N)(=O)=O)cs1` [Compound 530, Famotidine], the “Compound effect (percent receptor signaling in presence of test compound, relative lux units relative to the SCH23390 control)” value turned out to be 115.

Consider `Fc1ccc(C(c2ccc(F)cc2)N2CCN(C/C=C/c3ccccc3)CC2)cc1` [Compound 533, Flunarizine dihydrochloride], for which the “Compound effect (percent receptor signaling in presence of test compound, relative lux units relative to the SCH23390 control)” value turned out to be 71.

In the case of `C[C@H]1O[C@@H](n2cc(F)c(=O)[nH]c2=O)[C@H](O)[C@@H]1O` [Compound 534, 5-fluoro-5'-deoxyuridine], the “Compound effect (percent receptor signaling in presence of test compound, relative lux units relative to the SCH23390 control)” value was found to be 111.

Take `CC(C)C(=O)Nc1ccc([N+](=O)[O-])c(C(F)(F)F)c1` [Compound 536, Flutamide]: the “Compound effect (percent receptor signaling in presence of test compound, relative lux units relative to the SCH23390 control)” value was 99.

In the case of `CC(C)(C(=O)O)c1ccc(C(O)CCCN2CCC(C(O)(c3ccccc3)c3ccccc3)CC2)cc1` (centres unmarked) [Compound 537, Fexofenadine hydrochloride], the “Compound effect (percent receptor signaling in presence of test compound, relative lux units relative to the SCH23390 control)” value is given as 87.

Consider `CCOC(=O)C1=C(C)NC(C)=C(C(=O)OC)C1c1cccc(Cl)c1Cl` (centres unmarked) [Compound 539, Felodipine], for which the “Compound effect (percent receptor signaling in presence of test compound, relative lux units relative to the SCH23390 control)” value came out at 96.

Take `O=C1NCN(c2ccccc2)C12CCN(CCCC(c1ccc(F)cc1)c1ccc(F)cc1)CC2` [Compound 540, Fluspirilene]: the “Compound effect (percent receptor signaling in presence of test compound, relative lux units relative to the SCH23390 control)” value is listed as 53.

For `Cc1nc2c([nH]1)c(=O)n(C)c(=O)n2Cc1ccco1` [Compound 542, Furafylline], the “Compound effect (percent receptor signaling in presence of test compound, relative lux units relative to the SCH23390 control)” value is reported as 120.

As to `COC(=O)c1c(C)[nH]c(C)c1C(=O)c1ccccc1Cc1ccccc1` [Compound 543, FPL 64176], the “Compound effect (percent receptor signaling in presence of test compound, relative lux units relative to the SCH23390 control)” value came out at 86.

Regarding `CNCCC(Oc1ccc(C(F)(F)F)cc1)c1ccccc1` (centres unmarked) [Compound 544, Fluoxetine hydrochloride], the “Compound effect (percent receptor signaling in presence of test compound, relative lux units relative to the SCH23390 control)” value is reported as 118.

Take `NCC(=O)NCCC(c1ccccc1)c1ccccc1` [Compound 545, N-(3,3-Diphenylpropyl)glycinamide]: the “Compound effect (percent receptor signaling in presence of test compound, relative lux units relative to the SCH23390 control)” value is 105.

In the case of `COc1ccc(Cl)cc1C(=O)NCCc1ccc(S(=O)(=O)NC(=O)NC2CCCCC2)cc1` [Compound 546, Glibenclamide], the “Compound effect (percent receptor signaling in presence of test compound, relative lux units relative to the SCH23390 control)” value turned out to be 118.

For the compound `CN(C)c1cc2c(Nc3ccc4c(cnn4Cc4ccccc4)c3)ncnc2cn1` [Compound 547, GW2974], the “Compound effect (percent receptor signaling in presence of test compound, relative lux units relative to the SCH23390 control)” value is listed as 68.

With `N=C(N)NC(=O)Cc1c(Cl)cccc1Cl` [Compound 548, Guanfacine hydrochloride], the “Compound effect (percent receptor signaling in presence of test compound, relative lux units relative to the SCH23390 control)” value is listed as 112.

For the compound `Nc1nc(O)c2ncn(COC(CO)CO)c2n1` [Compound 550, Ganciclovir], the “Compound effect (percent receptor signaling in presence of test compound, relative lux units relative to the SCH23390 control)” value is 92.

Turning to `NC(=O)CC[C@H](N)C(=O)O` [Compound 551, L-Glutamine], the “Compound effect (percent receptor signaling in presence of test compound, relative lux units relative to the SCH23390 control)” value is on record as 115.

Consider `NC(N)=Nc1ccc2[nH]c3c(c2c1)C[C@@]1(O)[C@H]2Cc4ccc(O)c5c4[C@@]1(CCN2CC1CC1)[C@H]3O5.O=C(O)C(F)(F)F.O=C(O)C(F)(F)F` [Compound 552, Guanidinyl-naltrindole di-trifluoroacetate], for which the “Compound effect (percent receptor signaling in presence of test compound, relative lux units relative to the SCH23390 control)” value was found to be 120.

Turning to `CN(CCOc1ccc(C[C@H](Nc2ccccc2C(=O)c2ccccc2)C(=O)O)cc1)c1ccccn1` [Compound 554, GW1929], the “Compound effect (percent receptor signaling in presence of test compound, relative lux units relative to the SCH23390 control)” value was 131.

For the compound `O=C1Nc2ccc(I)cc2/C1=C/c1cc(Br)c(O)c(Br)c1` [Compound 555, GW5074], the “Compound effect (percent receptor signaling in presence of test compound, relative lux units relative to the SCH23390 control)” value came out at 25.

Take `O=c1c(-c2ccc(O)cc2)coc2cc(O)cc(O)c12` [Compound 556, Genistein]: the “Compound effect (percent receptor signaling in presence of test compound, relative lux units relative to the SCH23390 control)” value was determined as 67.

`CC(C)(Sc1ccc(CCN(CCCCC2CCCCC2)C(=O)NC2CCCCC2)cc1)C(=O)O` [Compound 557, GW7647]: the “Compound effect (percent receptor signaling in presence of test compound, relative lux units relative to the SCH23390 control)” value is reported as 50.

Turning to `CC[N+](CC)(CC)CCOc1cccc(OCC[N+](CC)(CC)CC)c1OCC[N+](CC)(CC)CC` [Compound 559, Gallamine triethiodide], the “Compound effect (percent receptor signaling in presence of test compound, relative lux units relative to the SCH23390 control)” value is recorded as 120.

`Cl.Cl.c1ccc(CCCN2CCN(CCOC(c3ccccc3)c3ccccc3)CC2)cc1` [Compound 560, GBR-12935 dihydrochloride]: the “Compound effect (percent receptor signaling in presence of test compound, relative lux units relative to the SCH23390 control)” value came to 61.

In the case of `O=C(O)C1=CCNCC1` [Compound 561, Isoguvacine hydrochloride], the “Compound effect (percent receptor signaling in presence of test compound, relative lux units relative to the SCH23390 control)” value is 71.

For the compound `O=C(O)C1=CCCNC1` [Compound 562, Guvacine hydrochloride], the “Compound effect (percent receptor signaling in presence of test compound, relative lux units relative to the SCH23390 control)” value turned out to be 94.

For the compound `Br.NCc1cc(O)no1` [Compound 564, Muscimol hydrobromide], the “Compound effect (percent receptor signaling in presence of test compound, relative lux units relative to the SCH23390 control)” value is reported as 130.

`N=C(N)N/N=C/c1c(Cl)cccc1Cl` [Compound 565, Guanabenz acetate]: the “Compound effect (percent receptor signaling in presence of test compound, relative lux units relative to the SCH23390 control)” value is given as 156.

On to `Cc1cnc(C(=O)NCCc2ccc(S(=O)(=O)NC(=O)NC3CCCCC3)cc2)cn1` [Compound 567, Glipizide], for which the “Compound effect (percent receptor signaling in presence of test compound, relative lux units relative to the SCH23390 control)” value came to 103.

Regarding `CC1=NN=C(c2ccc(N)cc2)c2cc3c(cc2C1)OCO3.Cl` [Compound 568, GYKI 52466 hydrochloride], the “Compound effect (percent receptor signaling in presence of test compound, relative lux units relative to the SCH23390 control)” value was determined as 90.

For `CC1Cc2cc3c(cc2C(c2ccc(N)cc2)=NN1)OCO3` (centres unmarked) [Compound 569, GYKI 52895], the “Compound effect (percent receptor signaling in presence of test compound, relative lux units relative to the SCH23390 control)” value turned out to be 71.

`COC(=O)N1CCN(C(=O)Cc2ccc(Cl)c(Cl)c2)C(CN2CCCC2)C1.O=C(O)/C=C/C(=O)O` (centres unmarked) [Compound 570, GR-89696 fumarate]: the “Compound effect (percent receptor signaling in presence of test compound, relative lux units relative to the SCH23390 control)” value is 79.

For `NCC1(CC(=O)O)CCCCC1` [Compound 571, Gabapentin], the “Compound effect (percent receptor signaling in presence of test compound, relative lux units relative to the SCH23390 control)” value worked out at 112.

In the case of `C[N+](C)(C)CCCCCC[N+](C)(C)C` [Compound 575, Hexamethonium bromide], the “Compound effect (percent receptor signaling in presence of test compound, relative lux units relative to the SCH23390 control)” value was 91.

Turning to `COc1cc(CC(=O)O)ccc1O` [Compound 576, 4-Hydroxy-3-methoxyphenylacetic acid], the “Compound effect (percent receptor signaling in presence of test compound, relative lux units relative to the SCH23390 control)” value is 82.

`NCCS(=O)O` [Compound 578, Hypotaurine]: the “Compound effect (percent receptor signaling in presence of test compound, relative lux units relative to the SCH23390 control)” value came to 89.

For `NNc1nncc2ccccc12` [Compound 580, Hydralazine hydrochloride], the “Compound effect (percent receptor signaling in presence of test compound, relative lux units relative to the SCH23390 control)” value turned out to be 100.

In the case of `Cl.OCc1c[nH]cn1` [Compound 581, 4-Imidazolemethanol hydrochloride], the “Compound effect (percent receptor signaling in presence of test compound, relative lux units relative to the SCH23390 control)” value worked out at 114.

Staying with this assay, now noted: 10 µM compound, 300 nM dopamine, 2 hr; hit = compound effect <20.
With `COc1cc(=O)n(C)c2c(OCC(O)C(C)(C)O)cccc12` (centres unmarked) [Compound 524, Foliosidine], the “Compound effect (percent receptor signaling in presence of test compound, relative lux units relative to the SCH23390 control)” value was 190%.

Take `CCCn1c(=O)c2[nH]c(C3CCCC3)nc2n(CCCOC(=O)c2ccc(S(=O)(=O)F)cc2)c1=O` [Compound 531, FSCPX]: the “Compound effect (percent receptor signaling in presence of test compound, relative lux units relative to the SCH23390 control)” value came to 97%.

Regarding `CC(C)=CCC/C(C)=C/CC/C(C)=C/CSc1ccccc1C(=O)O` [Compound 532, Farnesylthiosalicylic acid], the “Compound effect (percent receptor signaling in presence of test compound, relative lux units relative to the SCH23390 control)” value is 120%.

Turning to `Cl.N[C@@H](CCC(=O)O)C(=O)O` [Compound 549, L-Glutamic acid hydrochloride], the “Compound effect (percent receptor signaling in presence of test compound, relative lux units relative to the SCH23390 control)” value was 93%.

On to `Br.Br.N=C(N)NCCSSCCNC(=N)N` [Compound 553, Guanidinoethyl disulfide dihydrobromide], for which the “Compound effect (percent receptor signaling in presence of test compound, relative lux units relative to the SCH23390 control)” value came out at 105%.

Turning to `N=C(N)NC(CCC(=O)O)C(=O)O` (stereo not drawn) [Compound 558, alpha-Guanidinoglutaric acid], the “Compound effect (percent receptor signaling in presence of test compound, relative lux units relative to the SCH23390 control)” value came to 121%.

As for `N[C@H](CCC(=O)NCS(=O)(=O)O)C(=O)O` [Compound 566, gamma-D-Glutamylaminomethylsulfonic acid], the “Compound effect (percent receptor signaling in presence of test compound, relative lux units relative to the SCH23390 control)” value is 109%.

`COc1cc2c(CCNC(C)=O)c[nH]c2cc1O` [Compound 574, 6-Hydroxymelatonin]: the “Compound effect (percent receptor signaling in presence of test compound, relative lux units relative to the SCH23390 control)” value is 101%.

The values above are taken from publication PMC3265452 (PLoS Neglected Tropical Diseases, 2012).
